In patent publication US11111230B2 (ADLAI NORTYE BIOPHARMA CO., LTD., priority 2017, dated 2021):

Tests used:
human IDO1 protein = target: T1, human IDO1 protein (Homo sapiens, UniProt P14902); assay: Activity in HEK293 cells highly expressing human IDO1 protein; format: cell-based; details: HEK293-IDO cells, tryptophan 16 mg/L, 24 hours, absorption at 480 nm; read-out: IC50 (HEK293 cell)
T1 construct: expressed in transfected cells; host or cells: HEK293
Method: Example 2: Study on the Activity of the Present Invention in HEK293 Cells Highly Expressing Human IDO1 Protein
HEK293-IDO cells with high expression of human IDO1 protein were prepared by electrotransformation, and the cells were seeded in 96-well culture plates, and cultured at 37° C., 100% relative humidity, and 5% CO2 incubator for 24 hours. Dissolve in DMSO and dilute to the appropriate concentration, then use DMEM medium containing 10% fetal bovine serum to dilute the candidate 100-fold to the final concentration. Aspirate the old medium from the 96-well plate and add 200 μL of the medium contained in the previous step to each well. The content of tryptophan in the medium is 16 mg/L. The cells were placed in a 37° C., 100% relative humidity, and 5% CO2 incubator for 24 hours. 140 μL of the cell culture supernatant was mixed with 15 μL of trichloroacetic acid and placed at 52° C. for 30 min. Mix with an equal volume of Ehrlich's reagent, measure the light absorption at 480 nm, and calculate the IC50 values.

Hela cells = assay: Activity in Hela cells (interferon-γ induced, kynurenine readout with Ehrlich's reagent); format: cell-based; details: Homo sapiens, interferon-γ 50 ng/mL, tryptophan 16 mg/L, 48 hours, absorption at 480 nm
Method: Example 1: Study on the Activity of the Compound of the Present Invention in Hela Cells
Hela cells were seeded in 96-well culture plates and incubated at 37° C., 100% relative humidity, 5% CO2 incubator for 24 hours. The compound was dissolved in DMSO and diluted to an appropriate concentration, and then the compound was diluted 100-fold with DMEM medium containing interferon-γ and 10% fetal bovine serum to the final concentration of effect. Aspirate the old medium from the 96-well plate and add 200 μL of each medium containing compound and interferon-γ from the previous step. The content of tryptophan in the medium is 16 mg/L, and the concentration of interferon-γ is 50 ng/mL. The cells were placed in a 37° C., 100% relative humidity, and 5% CO2 incubator for 48 hours, then 140 μL of the cell culture supernatant was mixed with 15 μL of trichloroacetic acid, and placed at 52° C. for 30 min, then centrifuged at room temperature to take the centrifugal supernatant. Mix with an equal volume of Ehrlich's reagent, measure the light absorption at 480 nm, and calculate the IC50 values.

T1 sequence (P14902 whole entry): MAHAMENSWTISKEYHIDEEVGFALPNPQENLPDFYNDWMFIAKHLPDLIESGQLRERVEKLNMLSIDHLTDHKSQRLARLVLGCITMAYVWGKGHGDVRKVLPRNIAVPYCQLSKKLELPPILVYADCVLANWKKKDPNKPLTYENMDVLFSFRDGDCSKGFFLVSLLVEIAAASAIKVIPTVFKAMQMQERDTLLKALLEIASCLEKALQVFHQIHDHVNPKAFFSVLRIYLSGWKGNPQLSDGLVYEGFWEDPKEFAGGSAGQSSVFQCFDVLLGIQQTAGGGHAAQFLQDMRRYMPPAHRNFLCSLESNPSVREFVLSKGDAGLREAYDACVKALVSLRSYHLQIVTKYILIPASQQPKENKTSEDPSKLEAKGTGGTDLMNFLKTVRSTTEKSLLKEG

Compound	IC50 (human IDO1 protein) [nM]	IC50 (Hela cells) [nM]
O=C(Nc1ccc(Cl)cc1)[C@H]1CC12CCC(c1ccnc3ccc(F)cc13)CC2 (single isomer, unassigned) [Compound 10a]	0.1 to 10	0.1 to 10
O=C(Nc1ccc(Cl)cc1)[C@@H]1CC12CCC(c1ccnc3ccc(F)cc13)CC2 (single isomer, unassigned) [Compound 10b]	> 100	> 100
Cc1cc2nccc([C@H]3CC[C@@]4(CC3)C[C@@H]4C(=O)Nc3ccc(Cl)cc3)c2cc1F (single isomer, unassigned) [Compound 92]	0.1 to 10	0.1 to 10
Cc1cc2nccc([C@H]3CC[C@@]4(CC3)C[C@H]4C(=O)Nc3ccc(Cl)cc3)c2cc1F (single isomer, unassigned) [Compound 93]	> 100	> 100
COCCOc1ccc(NC(=O)[C@H]2C[C@]23CC[C@H](c2ccnc4cc(C)c(F)cc42)CC3)cc1 (single isomer, unassigned) [Compound 98]	0.1 to 10	0.1 to 10
COCCOc1ccc(NC(=O)[C@@H]2C[C@]23CC[C@H](c2ccnc4cc(C)c(F)cc42)CC3)cc1 (single isomer, unassigned) [Compound 99]	> 100	> 100
COc1cc2nccc([C@H]3CC[C@@]4(CC3)C[C@@H]4C(=O)Nc3ccc(Cl)cc3)c2cc1F (single isomer, unassigned) [Compound 108]	0.1 to 10	0.1 to 10
COc1cc2nccc([C@H]3CC[C@@]4(CC3)C[C@H]4C(=O)Nc3ccc(Cl)cc3)c2cc1F (single isomer, unassigned) [Compound 109]	> 100	> 100
O=C(Nc1ccc(Cl)cc1)C1CC12CCC(c1ccnc3ccc(F)cc13)CC2 (stereo not shown) [Compound 1, N-(4-chlorophenyl)-6-(6-fluoroquinolin-4-yl)spiro[2.5]octane-1-carboxamide]	10 to 100	0.1 to 10
O=C(Nc1ccc(F)cc1)C1CC12CCC(c1ccnc3ccc(F)cc13)CC2 (stereo not shown) [Compound 2, N-(4-fluorophenyl)-6-(6-fluoroquinolin-4-yl)spiro[2.5]octane-1-carboxamide]	10 to 100	10 to 100
O=C(NCc1ccc(Cl)cc1)C1CC12CCC(c1ccnc3ccc(F)cc13)CC2 (stereo not shown) [Compound 3, N-(4-chlorobenzyl)-6-(6-fluoroquinolin-4-yl)spiro[2.5]octane-1-carboxamide]	> 100	> 100
O=C(NCCc1ccc(Cl)cc1)C1CC12CCC(c1ccnc3ccc(F)cc13)CC2 (stereo not shown) [Compound 4, N-(4-chlorophenethyl)-6-(6-fluoroquinolin-4-yl)spiro[2.5]octane-1-carboxamide]	> 100	> 100
O=C(Nc1ccc(C(F)(F)F)cc1)C1CC12CCC(c1ccnc3ccc(F)cc13)CC2 (stereo not shown) [Compound 5, 6-(6-fluoroquinolin-4-yl)-N-(4-(trifluoromethyl)phenyl)spiro[2.5]octane-1-carboxamide]	10 to 100	> 100
N#Cc1ccc(NC(=O)C2CC23CCC(c2ccnc4ccc(F)cc24)CC3)cc1 (stereo not shown) [Compound 6, N-(4-cyanophenyl)-6-(6-fluoroquinolin-4-yl)spiro[2.5]octane-1-carboxamide]	10 to 100	10 to 100
O=C(Nc1ccc(Cl)nc1)C1CC12CCC(c1ccnc3ccc(F)cc13)CC2 (stereo not shown) [Compound 7, N-(6-chloropyridin-3-yl)-6-(6-fluoroquinolin-4-yl)spiro[2.5]octane-1-carboxamide]	10 to 100	10 to 100
O=C(Nc1ccc(Cl)cn1)C1CC12CCC(c1ccnc3ccc(F)cc13)CC2 (stereo not shown) [Compound 8, N-(5-chloropyridin-2-yl)-6-(6-fluoroquinolin-4-yl)spiro[2.5]octane-1-carboxamide]	10 to 100	10 to 100
Cc1cc2nccc(C3CCC4(CC3)CC4C(=O)Nc3ccc(Cl)cc3)c2cc1F (stereo not shown) [Compound 9, N-(4-chlorophenyl)-6-(6-fluoro-7-methylquinolin-4-yl)spiro[2.5]octane-1-carboxamide]	0.1 to 10	0.1 to 10
O=C(Nc1ccc(Br)cc1)C1CC12CCC(c1ccnc3ccc(F)cc13)CC2 (stereo not shown) [Compound 11, N-(4-bromophenyl)-6-(6-fluoroquinolin-4-yl)spiro[2.5]octane-1-carboxamide]	10 to 100	0.1 to 10
O=C(Nc1ccc(Cl)c(F)c1)C1CC12CCC(c1ccnc3ccc(F)cc13)CC2 (stereo not shown) [Compound 12, N-(4-chloro-3-fluorophenyl)-6-(6-fluoroquinolin-4-yl)spiro[2.5]octane-1-carboxamide]	10 to 100	10 to 100
O=S(=O)(Nc1ccc(Cl)cc1)C1CC12CCC(c1ccnc3ccc(F)cc13)CC2 (stereo not shown) [Compound 14, N-(4-chlorophenyl)-6-(6-fluoroquinolin-4-yl)spiro[2.5]octane-1-sulfonamide]	–	0.1 to 10
O=S(=O)(Nc1ccc(F)cc1)C1CC12CCC(c1ccnc3ccc(F)cc13)CC2 (stereo not shown) [Compound 15]	–	0.1 to 10
O=S(=O)(Nc1ccc(C(F)(F)F)cc1)C1CC12CCC(c1ccnc3ccc(F)cc13)CC2 (stereo not shown) [Compound 16]	–	0.1 to 10
COc1ccc(NS(=O)(=O)C2CC23CCC(c2ccnc4ccc(F)cc24)CC3)cc1 (stereo not shown) [Compound 17]	–	0.1 to 10

Compound	IC50 (human IDO1 protein) [nM]	IC50 (Hela cells) [nM]
Cc1ccc(NS(=O)(=O)C2CC23CCC(c2ccnc4ccc(F)cc24)CC3)cc1 (stereo not shown) [Compound 18]	–	0.1 to 10
N#Cc1ccc(NS(=O)(=O)C2CC23CCC(c2ccnc4ccc(F)cc24)CC3)cc1 (stereo not shown) [Compound 19]	–	0.1 to 10
Cc1ccc(NC(=O)N2CC23CCC(c2ccnc4ccc(F)cc24)CC3)cc1 (stereo not shown) [Compound 24]	–	> 100
O=C(Nc1ccc(Cl)cc1)C1COC12CCC(c1ccnc3ccc(F)cc13)CC2 (stereo not shown) [Compound 50, N-(4-chlorophenyl)-7-(6-fluoroquinolin-4-yl)-1-oxaspiro[3.5]nonane-3-carboxamide]	–	10 to 100
O=C(Nc1ccc(F)cc1)C1COC12CCC(c1ccnc3ccc(F)cc13)CC2 (stereo not shown) [Compound 51]	–	10 to 100
O=C(Nc1ccc(C(F)(F)F)cc1)C1COC12CCC(c1ccnc3ccc(F)cc13)CC2 (stereo not shown) [Compound 52]	–	10 to 100
COc1ccc(NC(=O)C2COC23CCC(c2ccnc4ccc(F)cc24)CC3)cc1 (stereo not shown) [Compound 53]	–	10 to 100
Cc1ccc(NC(=O)C2COC23CCC(c2ccnc4ccc(F)cc24)CC3)cc1 (stereo not shown) [Compound 54]	–	10 to 100
N#Cc1ccc(NC(=O)C2COC23CCC(c2ccnc4ccc(F)cc24)CC3)cc1 (stereo not shown) [Compound 55]	–	10 to 100
Cc1cc2nccc(C3CCC4(CC3)CC4C(=O)Nc3ccc(F)cc3)c2cc1F (stereo not shown) [Compound 80, 6-(6-fluoro-7-methylquinolin-4-yl)-N-(4-fluorophenyl)spiro[2.5]octane-1-carboxamide]	–	0.1 to 10
Cc1cc2nccc(C3CCC4(CC3)CC4C(=O)Nc3ccc(C#N)cc3)c2cc1F (stereo not shown) [Compound 81]	–	0.1 to 10
Cc1cc2nccc(C3CCC4(CC3)CC4C(=O)Nc3ccc(C(F)(F)F)cc3)c2cc1F (stereo not shown) [Compound 82]	–	0.1 to 10
Cc1ccc(NC(=O)C2CC23CCC(c2ccnc4cc(C)c(F)cc24)CC3)cc1 (stereo not shown) [Compound 83]	–	0.1 to 10
COc1ccc(NC(=O)C2CC23CCC(c2ccnc4cc(C)c(F)cc24)CC3)cc1 (stereo not shown) [Compound 84]	–	0.1 to 10
Cc1cc2nccc(C3CCC4(CC3)CC4C(=O)Nc3ccc(Br)cc3)c2cc1F (stereo not shown) [Compound 85]	–	0.1 to 10
Cc1cc2nccc(C3CCC4(CC3)CC4C(=O)Nc3ccc(Cl)c(F)c3)c2cc1F (stereo not shown) [Compound 86]	–	0.1 to 10
CN1CC(C(=O)Nc2ccc(Cl)cc2)C2(CCC(c3ccnc4ccc(F)cc34)CC2)C1 (stereo not shown) [Compound 87, N-(4-chlorophenyl)-8-(6-fluoroquinolin-4-yl)-2-methyl-2-azaspiro[4.5]decane-4-carboxamide]	–	> 100
CN1CC(C(=O)Nc2ccc(F)cc2)C2(CCC(c3ccnc4ccc(F)cc34)CC2)C1 (stereo not shown) [Compound 88]	–	> 100
CN1CC(C(=O)Nc2ccc(C(F)(F)F)cc2)C2(CCC(c3ccnc4ccc(F)cc34)CC2)C1 (stereo not shown) [Compound 89]	–	> 100
CN1CC(C(=O)Nc2ccc(Br)cc2)C2(CCC(c3ccnc4ccc(F)cc34)CC2)C1 (stereo not shown) [Compound 90]	–	> 100
CN1CC(C(=O)Nc2ccc(C#N)cc2)C2(CCC(c3ccnc4ccc(F)cc34)CC2)C1 (stereo not shown) [Compound 91]	–	> 100
COCc1cc2nccc(C3CCC4(CC3)CC4C(=O)Nc3ccc(Cl)cc3)c2cc1F (stereo not shown) [Compound 115, N-(4-chlorophenyl)-6-(6-fluoro-7-(methoxymethyl)quinolin-4-yl)spiro[2.5]octane-1-carb oxamide]	–	0.1 to 10
